Source: PMC8632694 (Frontiers in Pharmacology, 2021)
Entries after “also recorded” stand apart in the source; their conditions may differ. Read-outs that look alike come from different tables or passages of the source.

Columns and labels:
[1] = Steady-state plasma pharmacokinetics of atorvastatin, 2-hydroxyatorvastatin and atorvastatin lactone after atorvastatin 40 mg once daily for 7 days, alone or co-administered with tegoprazan 50 mg or vonoprazan 20 mg; conditions: for AUCτ / Css,max: N = 28; for AUCτ / Css,max / Metabolic ratio (AUCmetabolite/AUCatorvastatin): mean ± SD
[2] = human, in vivo
[3] = clinical; conditions: human, in vivo, AUCτ
[4] = Safety and tolerability: treatment-emergent adverse events by intervention; assay type: in vivo, human; conditions: for number of TEAEs (all) / number of subjects with TEAEs / percentage of subjects with TEAEs: per intervention (R1 31, R2 28, T 30, V 29 subjects), T and V co-administered with atorvastatin
Procedure: Safety was assessed based on symptom reports, physical examinations, vital signs, 12-lead ECGs, and clinical laboratory tests (hematology, clinical chemistry, and urinalysis).

[5] = Serum gastrin, pepsinogen I and II levels pre-dose and 24 h after 7 days of administration; assay type: in vivo, human; conditions: co-administered with atorvastatin for 7 days; compared to the baseline
Text: Error bars represent standard errors. The increase of serum levels in each intervention was compared to the intervention R. P-values were adjusted by Tukey-Kramer method; *p < 0.05; **p < 0.001.

[6] = system: CYP3A4; assay: CYP3A4 inhibition in vitro (literature values); assay type: biochemical; conditions: ref Nishihara et al., 2019, HK inno.N Corp
[7] = system: CYP3A4; parameters: method as in Nishihara et al., 2019; HK inno.N Corp; conditions: in vitro; ref Nishihara et al., 2019; HK inno.N Corp; cited from earlier work
[8] = system: OATP1B1; conditions: cited from earlier work
[9] = system: CYP3A4; assay: Estimated intestinal luminal concentration of vonoprazan compared with the CYP3A4 IC50; conditions: vonoprazan 20 mg orally administered
[10] = Atorvastatin alone (N = 28 for each intervention), comparison with tegoprazan
[11] = Atorvastatin alone (N = 28 for each intervention), comparison with vonoprazan
[12] = Reference 1: first intervention, atorvastatin 40 mg alone 7 days
[13] = Reference 2: second intervention, atorvastatin 40 mg alone 7 days
[14] = atorvastatin 40 mg co-administered with tegoprazan 50 mg 7 days
[15] = atorvastatin 40 mg co-administered with vonoprazan 20 mg 7 days
[16] = atorvastatin co-administered with vonoprazan compared to atorvastatin alone
[17] = TEAE, intervention arm = label, P-CAB arms co-administered with atorvastatin 40 mg, 7 days
[18] = TEAE, serum gastrin greater than 200 ng/L, intervention arm = label, co-administered with atorvastatin 40 mg, 7 days

## CC(C)c1c(C(=O)Nc2ccccc2O)c(-c2ccccc2)c(-c2ccc(F)cc2)n1CCC(O)CC(O)CC(=O)O (centres unmarked) [2-hydroxyatorvastatin]
[1]; [10]
  AUCτ, geometric least squares mean: 137.9 ng·h/mL
  Css,max, geometric least squares mean: 22.5 ng/mL
[1]; [11]
  AUCτ, geometric least squares mean: 138.2 ng·h/mL
  Css,max, geometric least squares mean: 22.7 ng/mL
[1]; [12]
  AUCτ: 152.04 ± 70.25 ng·h/mL
  Css,max: 24.95 ± 11.77 ng/mL
  Metabolic ratio (AUCmetabolite/AUCatorvastatin): 1.27 ± 0.52
[1]; [13]
  AUCτ: 144.35 ± 58.71 ng·h/mL
  Css,max: 25.72 ± 17.15 ng/mL
  Metabolic ratio (AUCmetabolite/AUCatorvastatin): 1.32 ± 0.55
[1]; With Tegoprazan (N = 28)
  AUCτ, geometric least squares mean: 144.8 ng·h/mL
  Css,max, geometric least squares mean: 23.8 ng/mL
[1]; With Vonoprazan (N = 28)
  AUCτ, geometric least squares mean: 125.1 ng·h/mL
  Css,max, geometric least squares mean: 15.91 ng/mL
[1]; [14]
  AUCτ: 156.46 ± 67.69 ng·h/mL
  Css,max: 26.34 ± 12.64 ng/mL
  Metabolic ratio (AUCmetabolite/AUCatorvastatin): 1.31 ± 0.47
[1]; [15]
  AUCτ: 135.57 ± 64.05 ng·h/mL
  Css,max: 18.19 ± 12.16 ng/mL
  Metabolic ratio (AUCmetabolite/AUCatorvastatin): 0.90 ± 0.32
[1]; [16]
  Decrease of AUCτ: 9%
  Decrease of Css,max: 30%
[1]; ratio of atorvastatin co-administered with tegoprazan to administered alone
  Css,max, GMR (90% CI): 1.06 (0.95-1.17)

## CC(C)c1c(C(=O)Nc2ccccc2)c(-c2ccccc2)c(-c2ccc(F)cc2)n1CC[C@@H]1C[C@@H](O)CC(=O)O1 [Atorvastatin lactone, atorvastatin lactone]
[2]
  AUCτ, geometric least squares mean: 67.3 ng·h/mL
[2]; 40 mg
  AUCτ: 57.36 ± 28.51 ng·h/mL
[3]; 40 mg
  AUC: 61.1 ± 30.2 ng·h/mL
[3]; geometric least squares mean
  AUC: 52.1 ng·h/mL

## CC(C)c1c(C(=O)Nc2ccccc2)c(-c2ccccc2)c(-c2ccc(F)cc2)n1CC[C@@H](O)C[C@@H](O)CC(=O)O [Reference 1, atorvastatin]
[4]; [17]
  Anaemia: number of events: 1
  Anaemia: number of subjects: 1
  Anaemia: percentage of subjects: 3.2%
  Blood bilirubin increased: number of events: 1
  Blood bilirubin increased: number of subjects: 1
  Blood bilirubin increased: percentage of subjects: 3.2%
  Ocular discomfort: number of events: 1
  Ocular discomfort: number of subjects: 1
  Ocular discomfort: percentage of subjects: 3.2%
  Pyuria: number of events: 1
  Pyuria: number of subjects: 1
  Pyuria: percentage of subjects: 3.2%
[4]
  number of TEAEs (all): Seven
  number of subjects with TEAEs: 6
  percentage of subjects with TEAEs: 19.4%

## CC(C)c1c(C(=O)Nc2ccccc2)c(-c2ccccc2)c(-c2ccc(F)cc2)n1CC[C@@H](O)C[C@@H](O)CC(=O)O [Reference 2, atorvastatin]
[4]; [17]
  Anaemia: number of events: 1
  Anaemia: number of subjects: 1
  Anaemia: percentage of subjects: 3.6%
  Blood bilirubin increased: number of events: 2
  Blood bilirubin increased: number of subjects: 2
  Blood bilirubin increased: percentage of subjects: 7.1%
  Pyuria: number of events: 1
  Pyuria: number of subjects: 1
  Pyuria: percentage of subjects: 3.6%
[4]; listed as intervention R2
  number of TEAEs (all): 8
  number of subjects with TEAEs: 7

## Cc1nc2cc(C(=O)N(C)C)cc(O[C@H]3CCOc4cc(F)cc(F)c43)c2[nH]1 [Tegoprazan, tegoprazan]
[4]; [17]
  Blood bilirubin increased: number of events: 2
  Blood bilirubin increased: number of subjects: 2
  Blood bilirubin increased: percentage of subjects: 6.7%
  Neutrophil count decreased: number of events: 1
  Neutrophil count decreased: number of subjects: 1
  Neutrophil count decreased: percentage of subjects: 3.3%
  Ocular discomfort: number of events: 1
  Ocular discomfort: number of subjects: 1
  Ocular discomfort: percentage of subjects: 3.3%
  Pyuria: number of events: 1
  Pyuria: number of subjects: 1
  Pyuria: percentage of subjects: 3.3%
[4]; neutropenia in intervention T, blood creatine phosphokinase increased in intervention R
  subjects who discontinued the study due to AEs: 1
[4]
  number of TEAEs (all): Ten
  number of subjects with TEAEs: 7
  percentage of subjects with TEAEs: 23.3%
[5]
  increase in serum pepsinogen I: 2.7 times
  increase in serum pepsinogen II: 2.2 times
  increase of serum gastrin: 1.2 times
[6]
  expected plasma concentration at clinical doses relative to the CYP3A4 IC50 (fold lower): 25 fold
[7]
  IC50: > 30 µM
[8]; in vitro / non-clinical study, ref HK inno.N Corp
  inhibitory activity on OATP1B1: showed the inhibitory activity on some OATP1B1 substrates; also recorded: showed various inhibitory activities

## CNCc1cc(-c2ccccc2F)n(S(=O)(=O)c2cccnc2)c1 [Vonoprazan, vonoprazan]
[4]; TEAE, serum gastrin greater than 200 ng/L, intervention arm = label, P-CAB arms co-administered with atorvastatin 40 mg, 7 days
  Hypergastrinaemia: number of subjects: […]
[4]; [18]
  Hypergastrinaemia: percentage of subjects: 20.7%
[4]; [17]
  Blood bilirubin increased: number of events: 1
  Blood bilirubin increased: number of subjects: 1
  Dyspepsia: number of events: 2
  Dyspepsia: number of subjects: 2
  Headache: number of events: 2
  Headache: number of subjects: 2
  Neutrophil count decreased: number of events: 2
  Neutrophil count decreased: number of subjects: 2
  Pyuria: number of events: 2
  Pyuria: number of subjects: 2
[4]; across the interventions
  occurrence of hypergastrinemia (serum gastrin level greater than 200 ng/L): only occurred when atorvastatin was co-administered with vonoprazan
[4]
  number of TEAEs (all): 17
  percentage of subjects with TEAEs: 51.7%
[5]
  increase in serum pepsinogen I: […]
  increase in serum pepsinogen II: […]
[6]
  expected plasma concentration at clinical doses relative to the CYP3A4 IC50 (fold lower): […]
[9]; estimated, ref US Food and Drug Administration, 2020b
  intestinal luminal concentration: […]
[9]
  intestinal luminal concentration relative to the CYP3A4 IC50 (fold higher): […]
[7]
  IC50: […]
[8]; in vitro study, ref Pharmaceuticals and Medical Devices Agency, 2014
  inhibition of OATP1B1: did not inhibit OATP1B1
